Reference: ChEMBL document CHEMBL1201862, “PubChem BioAssay data set” (2004)
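Dose response: 5 concentrations. Exposure: 48 h. Format: 96-well plates. Endpoint: linear interpolation; highest concentration if not reached. GI50 marks 50% less growth.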 Calls of active or inactive are those of the source. Rule as the data show it: active = GI50 up to about 1.1 µM and inactive = higher.

Legend:
Experiment in all cases: NCI-60 cell line screen, 48 h
OVCAR-8 = system: OVCAR-8
SNB-19 = system: SNB-19
OVCAR-3 = system: OVCAR-3
MDA-MB-231 = system: MDA-MB-231
RPMI-8226 = system: RPMI-8226
NCI/ADR-RES = system: NCI/ADR-RES
NCI-H226 = system: NCI-H226
SF-295 = system: SF-295
ACHN = system: ACHN
SN12C = system: SN12C
Hs-578T = system: Hs-578T
MDA-N = system: MDA-N
OVCAR-4 = system: OVCAR-4
HT-29 = system: HT-29
SW-620 = system: SW-620
SF-539 = system: SF-539
NCI-H522 = system: NCI-H522
CAKI-1 = system: CAKI-1
SF-268 = system: SF-268

Measured: GI50

CCCc1c(O)nc2ccccc2c1O
inactive: OVCAR-8 > 100 µM | SNB-19 > 100 µM | OVCAR-3 > 100 µM | MDA-MB-231 > 100 µM | RPMI-8226 > 100 µM | NCI/ADR-RES > 100 µM | NCI-H226 > 100 µM | SF-295 > 100 µM | ACHN > 100 µM | SN12C > 100 µM | Hs-578T > 100 µM | MDA-N > 100 µM | OVCAR-4 > 100 µM | HT-29 > 100 µM | SW-620 > 100 µM | SF-539 > 100 µM | NCI-H522 > 100 µM | CAKI-1 > 100 µM

c1ccc(-c2cc(-c3cccs3)c(-c3cccs3)s2)cc1
inactive: OVCAR-8 > 100 µM | OVCAR-3 56.2 µM | MDA-MB-231 29.9 µM | RPMI-8226 31.8 µM | NCI/ADR-RES 41.4 µM | NCI-H226 > 100 µM | SF-295 80 µM | ACHN 70.5 µM | SN12C 85.9 µM | Hs-578T 70 µM | MDA-N 14.6 µM | SF-268 > 100 µM | OVCAR-4 14.3 µM | HT-29 55.7 µM | SW-620 33.7 µM | SF-539 > 100 µM | NCI-H522 26.5 µM | CAKI-1 26.4 µM

CC1CCC2(CC1)N=C1CCC(C)CC1C1(CCC(C)CC1)N2 (stereo not drawn)
inactive: OVCAR-8 > 100 µM | SNB-19 > 100 µM | OVCAR-3 > 100 µM | MDA-MB-231 > 100 µM | RPMI-8226 82 µM | NCI/ADR-RES > 100 µM | NCI-H226 > 100 µM | SF-295 > 100 µM | ACHN > 100 µM | Hs-578T > 100 µM | MDA-N 73.8 µM | OVCAR-4 > 100 µM | HT-29 86.7 µM | SW-620 79.3 µM | SF-539 > 100 µM | NCI-H522 69.8 µM | CAKI-1 > 100 µM

COC(=O)c1ccc(/C=C2\Oc3cc(O)ccc3C2=O)cc1
inactive: OVCAR-8 61.5 µM | SNB-19 69.8 µM | OVCAR-3 53.3 µM | MDA-MB-231 65.9 µM | RPMI-8226 29.4 µM | NCI/ADR-RES > 100 µM | NCI-H226 55.3 µM | SF-295 36.8 µM | ACHN 31.7 µM | SN12C 53.8 µM | Hs-578T 52.4 µM | MDA-N 67.3 µM | SF-268 66.1 µM | OVCAR-4 62.8 µM | SW-620 78.2 µM | SF-539 > 100 µM | NCI-H522 20 µM | CAKI-1 68.5 µM

Cc1n[nH]c(=O)n1-n1cccc1
inactive: OVCAR-8 > 100 µM | SNB-19 > 100 µM | OVCAR-3 > 100 µM | MDA-MB-231 > 100 µM | RPMI-8226 > 100 µM | NCI/ADR-RES > 100 µM | NCI-H226 > 100 µM | SF-295 > 100 µM | ACHN > 100 µM | SN12C > 100 µM | Hs-578T > 100 µM | MDA-N > 100 µM | SF-268 > 100 µM | OVCAR-4 > 100 µM | HT-29 > 100 µM | SW-620 > 100 µM | SF-539 > 100 µM | NCI-H522 > 100 µM | CAKI-1 > 100 µM

Cc1cn(C2C=CC(COP(=O)(OCC3=CC(=O)c4ccccc4C3=O)N(C)CCCCCl)O2)c(=O)[nH]c1=O (stereo not drawn)
inactive: OVCAR-8 13.7 µM | SNB-19 12 µM | OVCAR-3 3.5 µM | MDA-MB-231 12.6 µM | RPMI-8226 5.05 µM | NCI/ADR-RES 16.4 µM | NCI-H226 10.3 µM | SF-295 2.59 µM | ACHN 13.6 µM | SN12C 11.6 µM | Hs-578T 3.9 µM | MDA-N 2.21 µM | SF-268 12.1 µM | OVCAR-4 11.1 µM | HT-29 12.7 µM | SW-620 5.13 µM | SF-539 13.1 µM | NCI-H522 14.7 µM | CAKI-1 13.2 µM

CCOC(=O)NC(Nc1ccc(F)c(F)c1)(C(=O)OCC)C(F)(F)F (stereo not drawn)
inactive: OVCAR-8 46 µM | SNB-19 > 100 µM | OVCAR-3 > 100 µM | MDA-MB-231 > 100 µM | RPMI-8226 > 100 µM | NCI/ADR-RES > 68.5 µM | NCI-H226 > 100 µM | SF-295 74 µM | ACHN 27 µM | SN12C > 100 µM | Hs-578T > 25.9 µM | MDA-N > 100 µM | SF-268 > 100 µM | OVCAR-4 > 46.3 µM | HT-29 > 100 µM | SW-620 17.4 µM | SF-539 > 100 µM | NCI-H522 > 100 µM | CAKI-1 > 100 µM
